Tested on: Ca^2+-ATPase of intracellular IP3-sensitive Ca^2+-stores
Assay: not given
Settings: in words; cited from earlier work

| SMILES | inhibition of Ca^2+-ATPase |
| --- | --- |
| C/C=C(/C)C(=O)O[C@H]1C(C)=C2[C@H]([C@@H]1OC(=O)CCCCCCC)[C@@](C)(OC(C)=O)C[C@H](OC(=O)CCC)[C@@]1(O)[C@H]2OC(=O)[C@@]1(C)O [THAPSIGARGIN] | selectively and irreversibly inhibits |

Tested on: unselective cation channels (UCC)
Assay: Thapsigargin (0.1 μM) stimulated Ca^2+ entry through unselective cation channels in fura-2-charged RBL-hm 1 cells
Assay type: cell-based, rat
Settings: RBL-hm 1 cells, Thapsigargin (0.1 μM) stimulation, 10 μM test substance (Table 21)
Description: As a measurement of the cell activation or as a measurement of the inhibition thereof by UCC blockers, the kinetics of the cytoplasmic calcium ion concentration in fura-2-charged cells is quantified fluorometrically using the method described by GRYNKIEWICZ et al. (1985).
Consequently the Ca^2+ -stores are rapidly depleted. As described by J. PUTNEY (Calcium, 11, 611-624, 1990) the depletion of these stores constitutes the physiological stimulation for opening up unselective cation channels in the cell membrane. The result of this is a massive influx of Na^+ and Ca^2+ into the cell. Because of these properties, Thapsigargin is suitable as an indirect stimulator for agonist- and IP3-independent opening up of the unselective cation channels.
The functional endothelin antagonism of the substances according to the invention is mediated through a blockade of the unselective cation channels. Consequently, detection of a functional Thapsigargin-antagonism on RBL-hm1 cells is also a suitable screening method for functional endothelin antagonists.
For screening purposes, fura-2-charged adhesive RBL-hm 1 cells are stimulated with 0.1 μM Thapsigargin in a Ca^2+ -free incubation medium. After 4 minutes, extracellular Ca^2+ is restored to a concentration of 1.5 mM and, using the fura-2-fluorescence, the excessive increase in the cytoplasmic Ca^2+ -concentration caused by a massive transmembranal Ca^2+ -entry through unselective cation channels is recorded.
This entry is to be inhibited solely by unselective cation channel blockers in a dosage-dependent manner. Neither conventional calcium antagonists nor specific blockers of agonists which stimulate the IP3 -turnover are able to inhibit the transmembranal Ca^2+ -entry triggered indirectly by Thapsigargin. The compounds of the present invention are distinguished by their inhibition of UCC.
The fluorometric calcium measurement in the cytoplasm of individual adhering RBL-hm1 cells is carried out analogously to the method described by KUDO and OGURA (1986) for neuronal cells. An AXIOVERT 35 fluorescence microscope made by ZEISS is used in conjunction with an imaging system made by HAMAMATSU, consisting of the ICMS-image processing system, residual light camera with control unit and image intensifier DVS 3000.
The kinetics of the cytoplasmic Ca^2+ -concentration is recorded continuously as a concentration/time curve after the cell activation stimulated by Thapsigargin (0.1 μM). The curves of two activated cell cultures are compared in the presence and absence of 10 μM test substance. The area under these curves (area under the curve=AUC) is integrated and recorded as a measurement of cell activation. The inhibitory potency of the UCC-blockers tested is determined using the following equation: [formula] %H=the percentage inhibition of the calcium entry through unselective cation channels which is stimulated and inhibited by 10 μM of test substance.
AUCinh =area under the curve recorded in the presence of the stimulant plus 10 μM inhibitory test substance.
AUCcontrol =area under the curve which is recorded only after the addition of the stimulant.
The percentage inhibition of UCC after Thapsigargin stimulation (0.1 μM Thapsigargin) in RBL-hm 1 cells is given. The uniform concentration of the test substances is 10^-5 mol).

| SMILES | % Inhibition |
| --- | --- |
| COc1cc2c(cc1OC)C(=C(C(=O)NC(Cc1ccccc1)c1ccccc1)c1ccccc1)NCC2 (stereo not shown) [Q] | 64.28% |
| COCCNC(=O)C(=C1NCCc2cc(OC)c(OC)cc21)c1ccccc1 [compound 17] | 52.53% |
| COCCCNC(=O)C(=C1NCCc2cc(OC)c(OC)cc21)c1ccccc1 [compound 18] | 57.53% |
| COc1cc2c(cc1OC)C(=C(C(=O)NCCCN(C)C)c1ccccc1)NCC2 [compound 20] | 57.38% |
| COc1cc2c(cc1OC)C(C(C(=O)Nc1cccnc1)c1ccccc1)=NCC2 (stereo not shown) [compound 33] | 60.55% |
| COc1cc2c(cc1OC)C(C(C(=O)N(C)C)c1ccccc1)=NCC2 (stereo not shown) [compound 36] | 52.19% |
| CCN(CC)C(=O)C(C1=NCCc2cc(OC)c(OC)cc21)c1ccccc1 (stereo not shown) [compound 37] | 75.77% |
| COc1cc2c(cc1OC)C(C(C(=O)N1CCOCC1)c1ccccc1)=NCC2 (stereo not shown) [compound 39] | 48.62% |
| COc1cc2c(cc1OC)C(C(C(=O)N1CCSCC1)c1ccccc1)=NCC2 (stereo not shown) [compound 40] | 64.99% |
| COc1cc2c(cc1OC)C(=C(C(=O)N1CCN(Cc3ccccc3)CC1)c1ccccc1)NCC2 [compound 42] | 84.83% |
| COc1cc2c(cc1OC)C(C(C(=O)N1CCN(C)CC1)c1ccccc1)=NCC2 (stereo not shown) [compound 43] | 48.69% |
| O=C(NCCc1ccc2c(c1)OCO2)C(=C1NCCc2cc3c(cc21)OCO3)c1ccccc1 [compound 46] | 68.06% |
| O=C(NCCN1CCOCC1)C(=C1NCCc2cc3c(cc21)OCO3)c1ccccc1 [compound 48] | 61.34% |
| COc1ccc(CCNC(=O)C(=C2NCCc3c2[nH]c2ccccc32)c2ccccc2)cc1OC [compound 83] | 66.76% |
| O=C(NCCN1CCOCC1)C(=C1NCCc2c1[nH]c1ccccc21)c1ccccc1 [compound 89] | 53.38% |
| COc1cc2c(cc1OC)C(C(C(=O)NCCC(c1ccccc1)c1ccccc1)c1ccccc1)=NCC2 (stereo not shown) [compound 101] | 59.62% |
| COc1cc2c(cc1OC)C(C(C(=O)NCCc1ccccc1C)c1ccccc1)=NCC2 (stereo not shown) [compound 102] | 80.77% |
| COc1cc(CCNC(=O)C(C2=NCCc3cc(OC)c(OC)cc32)c2ccccc2)cc(OC)c1 (stereo not shown) [compound 104] | 54.67% |
| COc1cccc(CCNC(=O)C(C2=NCCc3cc(OC)c(OC)cc32)c2ccccc2)c1 (stereo not shown) [compound 105] | 45.09% |
| COc1cc2c(cc1OC)C(C(C(=O)NCc1cc(C)ccc1C)c1ccccc1)=NCC2 (stereo not shown) [compound 106] | 65.69% |
| COc1cc2c(cc1OC)C(C(C(=O)NCCCc1ccc(OC)c(OC)c1OC)c1ccccc1)=NCC2 (stereo not shown) [compound 108] | 44.45% |
| COc1cc2c(cc1OC)C(=C(C(=O)NCCc1ccc(OC)c(C)c1C)c1ccccc1)NCC2 [compound 109] | 74.18% |
| CCOc1ccccc1CCCNC(=O)C(C1=NCCc2cc(OC)c(OC)cc21)c1ccccc1 (stereo not shown) [compound 115] | 75.53% |
| COc1cc2c(cc1OC)C(=C(C(=O)NCC13CC4CC(CC(C4)C1)C3)c1ccccc1)NCC2 [compound 132] | 65.14% |
| COc1cc(N=[N+]=[N-])ccc1CCNC(=O)C(C1=NCCc2cc(OC)c(OC)cc21)c1ccccc1 (stereo not shown) [compound 133] | 68.15% |

Same assay, conditions: Table 16; %inhibition, 10 μM test substance

| SMILES | % |
| --- | --- |
| O=C(NCCc1cccc(C(F)(F)F)c1)C(C1=NCCc2cc(OCc3ccccc3)c(Cl)cc21)c1ccccc1 (stereo not shown) [drawing 223] | 32.90% |

Same assay, conditions: Table 17; 10 μM test substance

| SMILES | percent inhibition of Ca2+ entry |
| --- | --- |
| COc1cc2c(cc1OC)C(C(C(=O)NCCC(C)(C)C)c1ccccc1)=NCC2 (stereo not shown) | 80.97% |
| COc1cc(N=[N+]=[N-])ccc1CCNC(=O)C(C1=NCCc2cc(OC)c(OC)cc21)c1ccccc1 (stereo not shown) [drawing 231] | 68.2% |

Same assay, conditions: Table 20; 10 μM test substance

| SMILES | percent inhibition of Ca2+ entry |
| --- | --- |
| COc1cc2c(cc1O)CCN=C2C(C(=O)N(CCc1ccc(OC)c(OC)c1OC)CCc1ccc(OC)c(OC)c1OC)c1ccccc1 (stereo not shown) | 86.70% |
| O=C(NCCc1cccc(C(F)(F)F)c1)C(C1=NCCc2cc(OCc3ccccc3)c(Cl)cc21)c1ccccc1 (stereo not shown) [drawing 274] | 32.9% |

Tested on: RBL-2H3-cells
Assay: DNP-BSA antigen-induced activation of sensitised RBL-2H3 cells
Assay type: cell-based
Settings: Rattus norvegicus, read-out: inhibition of the antigen-induced cell activation
Procedure: Individual RBL-2H3-cells (a tumour cell line related to the mast cells) adhering to glass slides are used.
The cultivation and attachment of the RBL-2H3-cells are carried out by the method described by HIDE and BEAVEN (1991). In order to sensitise the adhesive RBL-2H3-cells the cells are incubated for 2 hours at ambient temperature with a 1:2000 diluted commercial gammaglobulin E-solution against a dinitrophenol-bovine serum albumin complex (DNP-BSA-antigen). The cells are then washed. By the addition of 0.1 ml of DNP-BSA-solution (10 μg/ml) there is a massive immunological cell activation which is mediated by a cytoplasmic Ca^2+ -overload. The fluorometric calcium measurement in the cytoplasm of individual adhering RBL-2H3-cells is carried out analogously to the method described by KUDO and OGURA (1986) for neuronal cells, which is also explained hereinbefore in this specification.

| SMILES | inhibition at 10 µM |
| --- | --- |
| O=C(O)c1cc(=O)c2c(OCC(O)COc3cccc4oc(C(=O)O)cc(=O)c34)cccc2o1 [chromoglycate] | ~50% |

Tested on: unselective cation channels (UCC)
Assay: Thapsigargin (0.1 μM) stimulated Ca^2+ entry through unselective cation channels in fura-2-charged RBL-hm 1 cells
Assay type: cell-based, rat
Settings: Table 17

| SMILES | IC50 |
| --- | --- |
| COc1cc2c(cc1OC)C(C(C(=O)NCCC(C)(C)C)c1ccccc1)=NCC2 (stereo not shown) | 7.57 µM |

Same assay, conditions: Table 20

| SMILES | IC50 |
| --- | --- |
| COc1cc2c(cc1O)CCN=C2C(C(=O)N(CCc1ccc(OC)c(OC)c1OC)CCc1ccc(OC)c(OC)c1OC)c1ccccc1 (stereo not shown) | 3.47 µM |

Reference: patent US5674878A, “Anellated dihydropyridines and the use thereof for the production of pharmaceutical preparations” (Boehringer Ingelheim KG, priority 1992, dated 1997)
